According to patent US20230416262A1, “TRPML MODULATORS” (Casma Therapeutics, Inc., priority 2020, published 2023):

system: THP-1 cells; experiment: Lamp1 lysosomal exocytosis assay; format: cell-based; settings: Homo sapiens, 55 min, 55 min incubation, top dose 20 μM
Experimental: For the Lamp1 lysosomal exocytosis assay, a human monocytic suspension cell line (THP-1) was used. Cells in culture should be used between a density of […] and 1.2e6/mL on the day of the assay. For each 96-well assay plate to be used, pellet 11e6 THP-1 cells at 330×g for 5 min in a 50 mL conical tube, aspirate media and resuspend in 22 mLs of RPMI 1640/10% FBS media for a final cell concentration of 5e5/mL. Prior to addition of cells to the assay plate, perform a 7 pt dilution curve using a top dose of compound at 2 mM and use a 3-fold serial dilution, the 8th point is DMSO only. Final top dose of compound in the assay was 20 μM. 2 μL of each serial dilution was transferred to a new 96-well v-bottom assay plate. 198 μL of cells (1e5 total cells/well) was prepared as above in each well of the assay plate and incubated at 37° C./5% CO2/95% RH for 55 min. After the 55 min incubation, cells were pelleted for 5 min at 4 C at 400×g in a tabletop centrifuge. The media was separated from the cell pellets in the plate. The pellets were washed using 200 μL ice cold buffer (PBS Ca^++/Mg^++ containing 2% final BSA and 80 μM final Dynasore). Cells were pelleted again at 400×g-5 min in a 4° C. tabletop centrifuge. Buffer was separated from cells. Each well was suspended in 75 uL Lamp1-PE antibody buffer (PBS Ca^++/Mg^++ containing 2% final BSA with 80 uM final Dynasore and 1:800 final dilution of Lamp 1-PE labeled antibody). After a 45 min antibody incubation on ice, 25 μL of sytox green was added (I drop/mL buffer), and each well was mixed and incubated for an additional 15 min on ice. After the 15 min sytox green incubation, 100 μL of ice-cold buffer (PBS Ca^++/Mg^++ containing 2% final BSA and 80 uM final Dynasore) was added and cells were pelleted for 5 min at 400×g. The buffer was removed and each sample was resuspended in 100 uL of ice-cold buffer (PBS Ca^++/Mg^++ containing 2% final BSA and 80 μM final Dynasore). FACs gating strategy: FACS analyze for sytox green (A488) and Lamp1-PE (DsRed). First gate against FSC-A/SSC-A to find non-fragmented or ‘live’ THP-1 cells. Next gate against FITC-A/FSC-A to omit sytox green positive cells. Then gate for FSC-A/FSC-H to remove any doublet cells. The last gate was a histogram for PE. The statistics for ‘count’ and ‘geometric mean fluorescence intensity’ (gWFI) for PE were repoted on the last gate.
Compounds having an activity designated as “++++” provided an exocytosis readout of ≤0.50 μM; compounds having an activity designated as “+++” provided an exocytosis readout of 0.51-1.00 μM; compounds having an activity designated as “++” provided an exocytosis readout of 1.01-5.00 μM; and compounds having an activity designated as “+” provided an exocytosis readout of ≥5.01 μM

SMILES	EC50 [µM]
O=C(Nc1cnsc1)N1CCC2(CC1)CN(S(=O)(=O)c1ccc(C(F)F)cc1)c1ccccc12 [Compound I-202, 1-((4-(difluoromethyl)phenyl)sulfonyl)-N-(isothiazol-4-yl)spiro[indoline-3,4′-piperidine]-1′-carboxamide]	≥ 5.01
O=C(NCC1CCCO1)N1CCC2(CC1)CN(S(=O)(=O)c1ccc(C(F)F)cc1)c1ccccc12 (centres unmarked) [Compound I-203, 1-((4-(difluoromethyl)phenyl)sulfonyl)-N-((tetrahydrofuran-2-yl)methyl)spiro[indoline-3,4′-piperidine]-1′-carboxamide]	≥ 5.01
O=C(NCC1CCOC1)N1CCC2(CC1)CN(S(=O)(=O)c1ccc(C(F)F)cc1)c1ccccc12 (centres unmarked) [Compound I-204]	≥ 5.01
O=C(NC1CCOCC1)N1CCC2(CC1)CN(S(=O)(=O)c1ccc(C(F)F)cc1)c1ccccc12 [Compound I-205, 1-((4-(difluoromethyl)phenyl)sulfonyl)-N-(tetrahydro-2H-pyran-4-yl)spiro[indoline-3,4′-piperidine]-1′-carboxamide]	≥ 5.01
O=C(NC1CC(F)(F)C1)N1CCC2(CC1)CN(S(=O)(=O)c1ccc(C(F)F)cc1)c1ccccc12 [Compound I-206, N-(3,3-difluorocyclobutyl)-1-((4-(difluoromethyl)phenyl)sulfonyl)spiro[indoline-3,4′-piperidine]-1′-carboxamide]	≥ 5.01
CCn1cc(NC(=O)N2CCC3(CC2)CN(S(=O)(=O)c2ccc(C(F)F)cc2)c2ccccc23)cn1 [Compound I-207, 1-((4-(difluoromethyl)phenyl)sulfonyl)-N-(1-ethyl-1H-pyrazol-4-yl)spiro[indoline-3,4′-piperidine]-1′-carboxamide]	≥ 5.01
O=C(NCCn1cccn1)N1CCC2(CC1)CN(S(=O)(=O)c1ccc(C(F)F)cc1)c1ccccc12 [Compound I-208, N-(2-(1H-pyrazol-1-yl)ethyl)-1-((4-(difluoromethyl)phenyl)sulfonyl)spiro[indoline-3,4′-piperidine]-1′-carboxamide]	≥ 5.01
Cn1cc(CNC(=O)N2CCC3(CC2)CN(S(=O)(=O)c2ccc(C(F)F)cc2)c2ccccc23)cn1 [Compound I-209, 1-((4-(difluoromethyl)phenyl)sulfonyl)-N-((1-methyl-1H-pyrazol-4-yl)methyl)spiro[indoline-3,4′-piperidine]-1′-carboxamide]	≥ 5.01
O=C(Nc1cncc(F)c1)N1CCC2(CC1)CN(S(=O)(=O)c1ccc(C(F)F)cc1)c1ccccc12 [Compound I-210, 1-((4-(difluoromethyl)phenyl)sulfonyl)-N-(5-fluoropyridin-3-yl)spiro[indoline-3,4′-piperidine]-1′-carboxamide]	≥ 5.01
Cc1cc(CNC(=O)N2CCC3(CC2)CN(S(=O)(=O)c2ccc(C(F)F)cc2)c2ccccc23)no1 [Compound I-211, 1-((4-(difluoromethyl)phenyl)sulfonyl)-N-((5-methylisoxazol-3-yl)methyl)spiro[indoline-3,4′-piperidine]-1′-carboxamide]	≥ 5.01
Cc1cc(CNC(=O)N2CCC3(CC2)CN(S(=O)(=O)c2ccc(C(F)F)cc2)c2ccccc23)on1 [Compound I-212]	≥ 5.01
Cc1noc(C)c1NC(=O)N1CCC2(CC1)CN(S(=O)(=O)c1ccc(C(F)F)cc1)c1ccccc12 [Compound I-213, 1-((4-(difluoromethyl)phenyl)sulfonyl)-N-(3,5-dimethylisoxazol-4-yl)spiro[indoline-3,4′-piperidine]-1′-carboxamide]	≥ 5.01
O=C(NCCC(F)(F)F)N1CCC2(CC1)CN(S(=O)(=O)c1ccc(C(F)F)cc1)c1ccccc12 [Compound I-214, 1-((4-(difluoromethyl)phenyl)sulfonyl)-N-(3,3,3-trifluoropropyl)spiro[indoline-3,4′-piperidine]-1′-carboxamide]	≥ 5.01
O=C(NCC1CCOCC1)N1CCC2(CC1)CN(S(=O)(=O)c1ccc(C(F)F)cc1)c1ccccc12 [Compound I-215, 1-((4-(difluoromethyl)phenyl)sulfonyl)-N-((tetrahydro-2H-pyran-4-yl)methyl)spiro[indoline-3,4′-piperidine]-1′-carboxamide]	≥ 5.01
COc1ccc(NC(=O)N2CCC3(CC2)CN(S(=O)(=O)c2ccc(C(F)F)cc2)c2ccccc23)cn1 [Compound I-216, 1-((4-(difluoromethyl)phenyl)sulfonyl)-N-(6-methoxypyridin-3-yl)spiro[indoline-3,4′-piperidine]-1′-carboxamide]	≥ 5.01
Cc1nn(C)c(C)c1NC(=O)N1CCC2(CC1)CN(S(=O)(=O)c1ccc(C(F)F)cc1)c1ccccc12 [Compound I-217, 1-((4-(difluoromethyl)phenyl)sulfonyl)-N-(1,3,5-trimethyl-1H-pyrazol-4-yl)spiro[indoline-3,4′-piperidine]-1′-carboxamide]	≥ 5.01
O=C(NC1CCC(F)(F)CC1)N1CCC2(CC1)CN(S(=O)(=O)c1ccc(C(F)F)cc1)c1ccccc12 [Compound I-218, N-(4,4-difluorocyclohexyl)-1-((4-(difluoromethyl)phenyl)sulfonyl)spiro[indoline-3,4′-piperidine]-1′-carboxamide]	≥ 5.01
O=C(NC1CCS(=O)(=O)CC1)N1CCC2(CC1)CN(S(=O)(=O)c1ccc(C(F)F)cc1)c1ccccc12 [Compound I-224, 1-((4-(difluoromethyl)phenyl)sulfonyl)-N-(1,1-dioxidotetrahydro-2H-thiopyran-4-yl)spiro[indoline-3,4′-piperidine]-1′-carboxamide]	≥ 5.01
Cn1cc(NC(=O)N2CCC3(CC2)CN(S(=O)(=O)c2ccc(C(F)F)cc2)c2ccccc23)c(=O)n(C)c1=O [Compound I-229, 1-((4-(difluoromethyl)phenyl)sulfonyl)-N-(1,3-dimethyl-2,4-dioxo-1,2,3,4-tetrahydropyrimidin-5-yl)spiro[indoline-3,4′-piperidine]-1′-carboxamide]	≥ 5.01
O=C(NCc1ccccn1)C1CCC2(CC1)CN(S(=O)(=O)c1ccc(C(F)F)cc1)c1ccccc12 (centres unmarked) [Compound I-231, 1′-((4-(difluoromethyl)phenyl)sulfonyl)-N-(pyridin-2-ylmethyl)spiro[cyclohexane-1,3′-indoline]-4-carboxamide]	≥ 5.01
O=C(NCc1cccnc1)C1CCC2(CC1)CN(S(=O)(=O)c1ccc(C(F)F)cc1)c1ccccc12 (centres unmarked) [Compound I-232, 1′-((4-(difluoromethyl)phenyl)sulfonyl)-N-(pyridin-3-ylmethyl)spiro[cyclohexane-1,3′-indoline]-4-carboxamide]	≥ 5.01
O=C(NCc1ccncc1)C1CCC2(CC1)CN(S(=O)(=O)c1ccc(C(F)F)cc1)c1ccccc12 (centres unmarked) [Compound I-233, 1′-((4-(difluoromethyl)phenyl)sulfonyl)-N-(pyridin-4-ylmethyl)spiro[cyclohexane-1,3′-indoline]-4-carboxamide]	≥ 5.01
O=C(NCC1CC1)C1CCC2(CC1)CN(S(=O)(=O)c1ccc(C(F)F)cc1)c1ccccc12 (centres unmarked) [Compound I-236, N-(cyclopropylmethyl)-1′-((4-(difluoromethyl)phenyl)sulfonyl)spiro[cyclohexane-1,3′-indoline]-4-carboxamide]	≥ 5.01
O=C(C1CCC2(CC1)CN(S(=O)(=O)c1ccc(C(F)F)cc1)c1ccccc12)N1CCCC1 (centres unmarked) [Compound I-237, (1′-((4-(difluoromethyl)phenyl)sulfonyl)spiro[cyclohexane-1,3′-indolin]-4-yl)(pyrrolidin-1-yl)methanone]	≥ 5.01
O=C(C1CCC2(CC1)CN(S(=O)(=O)c1ccc(C(F)F)cc1)c1ccccc12)N1CCOCC1 (centres unmarked) [Compound I-238, (1′-((4-(difluoromethyl)phenyl)sulfonyl)spiro[cyclohexane-1,3′-indolin]-4-yl)(morpholino)methanone]	≥ 5.01
O=C(C1CCC2(CC1)CN(S(=O)(=O)c1ccc(C(F)F)cc1)c1ccccc12)N1CCC(F)(F)CC1 (centres unmarked) [Compound I-239, (1′-((4-(difluoromethyl)phenyl)sulfonyl)spiro[cyclohexane-1,3′-indolin]-4-yl)(4,4-difluoropiperidin-1-yl)methanone]	≥ 5.01
